Test system: Septoria tritici—SEPTTR
Assay: Leaf Blotch of Wheat, in vivo whole plant, 24 Hour Protectant
Conditions: Zymoseptoria tritici, 24 h, 100 ppm spray, 24 hour protectant, wheat; control of fungal infection vs untreated plants; read-out: SEPTTR in vivo 1 Day Protectant

Compound	pest or weed control at 100 ppm
COc1ccnc(C(=O)NC2CC(C)(C)CC(C)(C(=O)c3ccccc3)C2)c1O (stereo not drawn) [Compound 260]	25 to 74%

Same assay, conditions: Zymoseptoria tritici, 24 h, 100 ppm spray, wheat, 24 hour protectant, % control of fungal infection vs untreated plants; read-out: SEPTTR in vivo 1 Day Protectant

Compound	pest or weed control at 100 ppm
COc1ccnc(C(=O)Nc2ccc(C(=O)Oc3cccc(C(F)(F)F)c3)cc2)c1OC(C)=O [Compound 715]	< 25%
COCCC(=O)Oc1c(OC)ccnc1C(=O)Nc1ccc(C(=O)c2cccc(C(F)(F)F)c2)cc1 [Compound 706]	25 to 74%

Test system: Phytophthora infestans (PHYTIN)
Assay: microbe, parasite or virus in culture
Assay type: cell-based
Conditions: Phytophthora infestans, read-out: PHYTIN in vitro Growth Inhibition

Compound	inhibition at 25 ppm
COc1ccnc(C(=O)Nc2ccc(C(=O)Oc3cccc(C(F)(F)F)c3)cc2)c1OC(C)=O [Compound 715]	< 80%
COCCC(=O)Oc1c(OC)ccnc1C(=O)Nc1ccc(C(=O)c2cccc(C(F)(F)F)c2)cc1 [Compound 706]	< 80%
COc1ccnc(C(=O)NC2CC(C)(C)CC(C)(C(=O)c3ccccc3)C2)c1O (stereo not drawn) [Compound 260]	< 80%

Test system: Puccinia recondita—PUCCRT
Assay: Brown Rust of Wheat, in vivo whole plant, 24 Hour Protectant
Conditions: Puccinia; 100 ppm spray, 24 hour protectant, wheat; control of fungal infection vs untreated plants; read-out: PUCCRT in vivo 1 Day Protectant

Compound	pest or weed control at 100 ppm
COc1ccnc(C(=O)NC2CC(C)(C)CC(C)(C(=O)c3ccccc3)C2)c1O (stereo not drawn) [Compound 260]	< 25%

Same assay, conditions: Puccinia; 100 ppm spray, wheat, 24 hour protectant, % control of fungal infection vs untreated plants; read-out: PUCCRT in vivo 1 Day Protectant

Compound	pest or weed control at 100 ppm
COc1ccnc(C(=O)Nc2ccc(C(=O)Oc3cccc(C(F)(F)F)c3)cc2)c1OC(C)=O [Compound 715]	25 to 74%
COCCC(=O)Oc1c(OC)ccnc1C(=O)Nc1ccc(C(=O)c2cccc(C(F)(F)F)c2)cc1 [Compound 706]	< 25%

Test system: Mycosphaerella graminicola (Septoria tritici—SEPTTR)
Assay: In vitro fungal growth inhibition, Mycosphaerella graminicola (SEPTTR)
Assay type: cell-based
Conditions: Zymoseptoria tritici; 25 ppm in growth medium; read-out: SEPTTR in vitro Growth Inhibition

Compound	inhibition at 25 ppm
COc1ccnc(C(=O)Nc2ccc(C(=O)Oc3cccc(C(F)(F)F)c3)cc2)c1OC(C)=O [Compound 715]	< 80%
COCCC(=O)Oc1c(OC)ccnc1C(=O)Nc1ccc(C(=O)c2cccc(C(F)(F)F)c2)cc1 [Compound 706]	< 80%
COc1ccnc(C(=O)NC2CC(C)(C)CC(C)(C(=O)c3ccccc3)C2)c1O (stereo not drawn) [Compound 260]	< 80%

Test system: Phytophthora infestans—PHYTIN
Assay: whole plant or invertebrate
Assay type: in vivo
Conditions: Phytophthora, in Solanum lycopersicum, 24 h, read-out: PHYTIN in vivo 1 Day Protectant

Compound	pest or weed control at 100 ppm
COc1ccnc(C(=O)Nc2ccc(C(=O)Oc3cccc(C(F)(F)F)c3)cc2)c1OC(C)=O [Compound 715]	< 25%
COCCC(=O)Oc1c(OC)ccnc1C(=O)Nc1ccc(C(=O)c2cccc(C(F)(F)F)c2)cc1 [Compound 706]	< 25%
COc1ccnc(C(=O)NC2CC(C)(C)CC(C)(C(=O)c3ccccc3)C2)c1O (stereo not drawn) [Compound 260]	< 25%

Test system: Stagonospora nodorum (Leptosphaeria nodorum—LEPTNO)
Assay: In vitro fungal growth inhibition, Stagonospora nodorum (LEPTNO)
Assay type: cell-based
Conditions: Leptosphaeria; 25 ppm in growth medium; read-out: LEPTNO in vitro Growth Inhibition

Compound	inhibition at 25 ppm
COc1ccnc(C(=O)Nc2ccc(C(=O)Oc3cccc(C(F)(F)F)c3)cc2)c1OC(C)=O [Compound 715]	< 80%
COCCC(=O)Oc1c(OC)ccnc1C(=O)Nc1ccc(C(=O)c2cccc(C(F)(F)F)c2)cc1 [Compound 706]	> 80%
COc1ccnc(C(=O)NC2CC(C)(C)CC(C)(C(=O)c3ccccc3)C2)c1O (stereo not drawn) [Compound 260]	> 80%

Test system: Leptosphaeria nodorum—LEPTNO
Assay: Glume Blotch of Wheat, in vivo whole plant, 24 Hour Protectant
Conditions: Leptosphaeria; 100 ppm spray, 24 hour protectant, wheat; control of fungal infection vs untreated plants; read-out: LEPTNO in vivo 1 Day Protectant

Compound	pest or weed control at 100 ppm
COc1ccnc(C(=O)NC2CC(C)(C)CC(C)(C(=O)c3ccccc3)C2)c1O (stereo not drawn) [Compound 260]	25 to 74%

Same assay, conditions: Leptosphaeria; 100 ppm spray, wheat, 24 hour protectant, % control of fungal infection vs untreated plants; read-out: LEPTNO in vivo 1 Day Protectant

Compound	pest or weed control at 100 ppm
COc1ccnc(C(=O)Nc2ccc(C(=O)Oc3cccc(C(F)(F)F)c3)cc2)c1OC(C)=O [Compound 715]	25 to 74%
COCCC(=O)Oc1c(OC)ccnc1C(=O)Nc1ccc(C(=O)c2cccc(C(F)(F)F)c2)cc1 [Compound 706]	25 to 74%

Test system: Ustilago maydis (USTIMA)
Assay: microbe, parasite or virus in culture
Assay type: cell-based
Conditions: Mycosarcoma maydis, read-out: USTIMA in vitro Growth Inhibition

Compound	inhibition at 25 ppm
COc1ccnc(C(=O)Nc2ccc(C(=O)Oc3cccc(C(F)(F)F)c3)cc2)c1OC(C)=O [Compound 715]	< 80%
COCCC(=O)Oc1c(OC)ccnc1C(=O)Nc1ccc(C(=O)c2cccc(C(F)(F)F)c2)cc1 [Compound 706]	< 80%
COc1ccnc(C(=O)NC2CC(C)(C)CC(C)(C(=O)c3ccccc3)C2)c1O (stereo not drawn) [Compound 260]	< 80%

Test system: Erysiphe graminis—ERYSGT
Assay: Powdery Mildew of Wheat, in vivo whole plant, 24 Hour Protectant
Conditions: Erysiphe; 100 ppm spray, 24 hour protectant, wheat; control of fungal infection vs untreated plants; read-out: ERYSGT in vivo 1 Day Protectant

Compound	pest or weed control at 100 ppm
COc1ccnc(C(=O)NC2CC(C)(C)CC(C)(C(=O)c3ccccc3)C2)c1O (stereo not drawn) [Compound 260]	< 25%

Same assay, conditions: Erysiphe; 100 ppm spray, wheat, 24 hour protectant, % control of fungal infection vs untreated plants; read-out: ERYSGT in vivo 1 Day Protectant

Compound	pest or weed control at 100 ppm
COc1ccnc(C(=O)Nc2ccc(C(=O)Oc3cccc(C(F)(F)F)c3)cc2)c1OC(C)=O [Compound 715]	< 25%
COCCC(=O)Oc1c(OC)ccnc1C(=O)Nc1ccc(C(=O)c2cccc(C(F)(F)F)c2)cc1 [Compound 706]	< 25%

Test system: Rhizoctonia solani (RHIZSO)
Assay: microbe, parasite or virus in culture
Assay type: cell-based
Conditions: Rhizoctonia solani, read-out: RHIZSO in vitro Growth Inhibition

Compound	inhibition at 25 ppm
COc1ccnc(C(=O)Nc2ccc(C(=O)Oc3cccc(C(F)(F)F)c3)cc2)c1OC(C)=O [Compound 715]	< 80%
COCCC(=O)Oc1c(OC)ccnc1C(=O)Nc1ccc(C(=O)c2cccc(C(F)(F)F)c2)cc1 [Compound 706]	< 80%
COc1ccnc(C(=O)NC2CC(C)(C)CC(C)(C(=O)c3ccccc3)C2)c1O (stereo not drawn) [Compound 260]	< 80%

Test system: not given
Assay: not given
Conditions: not given

Compound	melting point
COc1ccnc(C(=O)Nc2ccc(C(=O)Oc3cccc(C(F)(F)F)c3)cc2)c1OC(C)=O [Compound 715]	166 to 169 °C
COCCC(=O)Oc1c(OC)ccnc1C(=O)Nc1ccc(C(=O)c2cccc(C(F)(F)F)c2)cc1 [Compound 706]	158 to 160 °C
COc1ccnc(C(=O)NC2CC(C)(C)CC(C)(C(=O)c3ccccc3)C2)c1O (stereo not drawn) [Compound 260]	147 to 149 °C

Test system: Magnaporthe grisea (Pyricularia oryzae—PYRIOR)
Assay: microbe, parasite or virus in culture
Assay type: cell-based
Conditions: Pyricularia oryzae, read-out: PYRIOR in vitro Growth Inhibition

Compound	inhibition at 25 ppm
COc1ccnc(C(=O)Nc2ccc(C(=O)Oc3cccc(C(F)(F)F)c3)cc2)c1OC(C)=O [Compound 715]	< 80%
COCCC(=O)Oc1c(OC)ccnc1C(=O)Nc1ccc(C(=O)c2cccc(C(F)(F)F)c2)cc1 [Compound 706]	< 80%
COc1ccnc(C(=O)NC2CC(C)(C)CC(C)(C(=O)c3ccccc3)C2)c1O (stereo not drawn) [Compound 260]	< 80%
